Values of other authors as cited in publication PMC7604311, “Caprine Bactenecins as Promising Tools for Developing New Antimicrobial and Antitumor Drugs” (Frontiers in Cellular and Infection Microbiology, 2020).

Experiments:
Design in all cases: key to Susceptibility category: R – resistant; I – intermediate; S – susceptible
Settings in all cases: initial susceptibility testing of the clinical isolate; ref supplying institutions; cited from earlier work
[1] = tested on: S. aureus 1399/17
[2] = tested on: K. pneumoniae ESBL 344/17;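 note: each antibiotic is scored as S (susceptible), I (intermediate) or R (resistant), with its MIC listed alongside, in a susceptibility profile of the clinical isolate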
[3] = tested on: A. baumannii 7226/16
Excerpt: page 1: Supplementary Material Supplementary Table 1. Susceptibility profiles of tested clinical isolates of bacteria. Gram-negative: Gram-positive: antibiotic E. coli A. baumannii P. aeruginosa K. pneumoniae antibiotic S. aureus ESBL 521/17 7226/16 MDR 522/17 ESBL 344/17 1399/17 AMP* R [≥32] R [≥32 ] R [≥32 ] R [≥32] AMP* R [≥32 ] AMC R [16] - - S [≤2] AMC - CTX R [≥64] - - S [≤1] AMX - CAZ R [≥64] - R [≥64] S [≤1] AZM R [≥4] FEP R [≥64] - R [≥64] S [≤1] VAN S [≤2] ATM R [≥64] - - S [≤1] DOX I [2] IPM S [≤1] R [≥16] I [8] S [≤1] CLI I [2] MEM S [≤0.25 ] R [≥32 ] R [≥16] S [≤0.25] MEM I [4] AM ...

[4] = tested on: E. coli ESBL 521/17
[5] = tested on: P. aeruginosa MDR 522/17

CC[C@H]1OC(=O)[C@H](C)[C@@H](O[C@H]2C[C@@](C)(OC)[C@@H](O)[C@H](C)O2)[C@H](C)[C@@H](O[C@@H]2O[C@H](C)C[C@H](N(C)C)[C@H]2O)[C@](C)(O)C[C@@H](C)/C(=N\OCOCCOC)[C@H](C)[C@@H](O)[C@]1(C)O [RXM, roxithromycin]
MIC of antibiotic [1]: 2 µg/mL | Susceptibility category [1]: I

trimethoprim–sulfamethoxazole [SXT]
MIC of antibiotic [2]: ≤ 20 µg/mL | Susceptibility category [2]: S | MIC of antibiotic [3]: ≥ 320 µg/mL | Susceptibility category [3]: R | MIC of antibiotic [4]: ≥ 320 µg/mL | Susceptibility category [4]: R

CC1(C)S[C@@H]2[C@H](NC(=O)[C@H](N)c3ccccc3)C(=O)N2[C@H]1C(=O)O [AMP*, ampicillin]
MIC of antibiotic [2]: ≥ 32 µg/mL | Susceptibility category [2]: R | MIC of antibiotic [3]: ≥ 32 µg/mL | Susceptibility category [3]: R | MIC of antibiotic [1]: ≥ 32 µg/mL | Susceptibility category [1]: R | MIC of antibiotic [5]: ≥ 32 µg/mL | Susceptibility category [5]: R | MIC of antibiotic [4]: ≥ 32 µg/mL | Susceptibility category [4]: R

C[C@H]1[C@H](NC(=O)/C(=N\OC(C)(C)C(=O)O)c2csc(N)n2)C(=O)N1S(=O)(=O)O [ATM, aztreonam]
MIC of antibiotic [2]: ≤ 1 µg/mL | Susceptibility category [2]: S | MIC of antibiotic [4]: ≥ 64 µg/mL | Susceptibility category [4]: R

CC(C)(O/N=C(\C(=O)N[C@@H]1C(=O)N2C(C(=O)[O-])=C(C[n+]3ccccc3)CS[C@H]12)c1csc(N)n1)C(=O)O [CAZ, ceftazidime]
MIC of antibiotic [2]: ≤ 1 µg/mL | Susceptibility category [2]: S | MIC of antibiotic [5]: ≥ 64 µg/mL | Susceptibility category [5]: R | MIC of antibiotic [4]: ≥ 64 µg/mL | Susceptibility category [4]: R

O=C1CN(/N=C/c2ccc([N+](=O)[O-])o2)C(=O)N1 [NIT, nitrofurantoin]
MIC of antibiotic [4]: 128 µg/mL | Susceptibility category [4]: R

C[C@@H](O)[C@H]1C(=O)N2C(C(=O)O)=C(S[C@@H]3CN[C@H](C(=O)N(C)C)C3)[C@H](C)[C@H]12 [MEM, meropenem]
MIC of antibiotic [2]: ≤ 0.25 µg/mL | Susceptibility category [2]: S | MIC of antibiotic [3]: ≥ 32 µg/mL | Susceptibility category [3]: R | MIC of antibiotic [1]: 4 µg/mL | Susceptibility category [1]: I | MIC of antibiotic [5]: ≥ 16 µg/mL | Susceptibility category [5]: R | MIC of antibiotic [4]: ≤ 0.25 µg/mL | Susceptibility category [4]: S

amoxicillin–clavulanic acid [AMC]
MIC of antibiotic [2]: ≤ 2 µg/mL | Susceptibility category [2]: S | MIC of antibiotic [4]: 16 µg/mL | Susceptibility category [4]: R

CN[C@H](CC(C)C)C(=O)N[C@H]1C(=O)N[C@@H](CC(N)=O)C(=O)N[C@H]2C(=O)N[C@H]3C(=O)N[C@H](C(=O)N[C@H](C(=O)O)c4cc(O)cc(O)c4-c4cc3ccc4O)[C@H](O)c3ccc(c(Cl)c3)Oc3cc2cc(c3O[C@@H]2O[C@H](CO)[C@@H](O)[C@H](O)[C@H]2O[C@H]2C[C@](C)(N)[C@H](O)[C@H](C)O2)Oc2ccc(cc2Cl)[C@H]1O [VAN, vancomycin]
MIC of antibiotic [1]: ≤ 2 µg/mL | Susceptibility category [1]: S

CO/N=C(\C(=O)N[C@@H]1C(=O)N2C(C(=O)[O-])=C(C[N+]3(C)CCCC3)CS[C@H]12)c1csc(N)n1 [FEP, cefepime]
MIC of antibiotic [2]: ≤ 1 µg/mL | Susceptibility category [2]: S | MIC of antibiotic [5]: ≥ 64 µg/mL | Susceptibility category [5]: R | MIC of antibiotic [4]: ≥ 64 µg/mL | Susceptibility category [4]: R

CCN[C@@H]1C[C@H](N)[C@@H](O[C@H]2OC(CN)=CC[C@H]2N)[C@H](O)[C@H]1O[C@H]1OC[C@](C)(O)[C@H](NC)[C@H]1O [NET, netilmicin]
MIC of antibiotic [2]: ≤ 1 µg/mL | Susceptibility category [2]: S | MIC of antibiotic [5]: ≥ 32 µg/mL | Susceptibility category [5]: R | MIC of antibiotic [4]: 8 µg/mL | Susceptibility category [4]: R

Cc1onc(-c2ccccc2)c1C(=O)N[C@@H]1C(=O)N2[C@@H]1SC(C)(C)[C@@H]2C(=O)O [OX, oxacillin]
MIC of antibiotic [1]: ≥ 32 µg/mL | Susceptibility category [1]: R

C[C@H]1c2cccc(O)c2C(=O)C2=C(O)[C@]3(O)C(=O)C(C(N)=O)=C(O)[C@@H](N(C)C)[C@@H]3[C@@H](O)[C@@H]21 [DOX, doxycycline]
MIC of antibiotic [1]: 2 µg/mL | Susceptibility category [1]: I

C[C@@H](O)[C@H]1C(=O)N2C(C(=O)O)=C(SCCN=CN)C[C@H]12 [IPM, imipenem]
MIC of antibiotic [2]: ≤ 1 µg/mL | Susceptibility category [2]: S | MIC of antibiotic [3]: ≥ 16 µg/mL | Susceptibility category [3]: R | MIC of antibiotic [5]: 8 µg/mL | Susceptibility category [5]: I | MIC of antibiotic [4]: ≤ 1 µg/mL | Susceptibility category [4]: S

CC1COc2c(N3CCN(C)CC3)c(F)cc3c(=O)c(C(=O)O)cn1c23 (stereo not shown) [OFL, ofloxacin]
MIC of antibiotic [1]: ≥ 32 µg/mL | Susceptibility category [1]: R

CCC[C@@H]1C[C@@H](C(=O)N[C@@H]([C@H]2O[C@H](SC)[C@H](O)[C@@H](O)[C@H]2O)[C@H](C)Cl)N(C)C1 [CLI, clindamycin]
MIC of antibiotic [1]: 2 µg/mL | Susceptibility category [1]: I

CNC(C)C1CCC(N)C(OC2C(N)CC(N)C(OC3OCC(C)(O)C(NC)C3O)C2O)O1 (stereo not shown) [GEN, gentamicin]
MIC of antibiotic [2]: ≤ 1 µg/mL | Susceptibility category [2]: S | MIC of antibiotic [3]: ≥ 16 µg/mL | Susceptibility category [3]: R | MIC of antibiotic [1]: ≥ 32 µg/mL | Susceptibility category [1]: R | MIC of antibiotic [5]: ≥ 16 µg/mL | Susceptibility category [5]: R | MIC of antibiotic [4]: ≤ 1 µg/mL | Susceptibility category [4]: S

colistin [CST]
MIC of antibiotic [2]: ≤ 0.5 µg/mL | Susceptibility category [2]: S | MIC of antibiotic [5]: ≥ 16 µg/mL | Susceptibility category [5]: R | MIC of antibiotic [4]: ≤ 0.5 µg/mL | Susceptibility category [4]: S

CO/N=C(\C(=O)N[C@@H]1C(=O)N2C(C(=O)O)=C(COC(C)=O)CS[C@H]12)c1csc(N)n1 [CTX, cefotaxime]
MIC of antibiotic [2]: ≤ 1 µg/mL | Susceptibility category [2]: S | MIC of antibiotic [4]: ≥ 64 µg/mL | Susceptibility category [4]: R

C[C@@H]1O[C@@H]1P(=O)(O)O [FOF, fosfomycin]
MIC of antibiotic [2]: ≤ 16 µg/mL | Susceptibility category [2]: S | MIC of antibiotic [4]: ≤ 16 µg/mL | Susceptibility category [4]: S

CC[C@H]1OC(=O)[C@H](C)[C@@H](O[C@H]2C[C@@](C)(OC)[C@@H](O)[C@H](C)O2)[C@H](C)[C@@H](O[C@@H]2O[C@H](C)C[C@H](N(C)C)[C@H]2O)[C@](C)(O)C[C@@H](C)CN(C)[C@H](C)[C@@H](O)[C@]1(C)O [AZM, azithromycin]
MIC of antibiotic [1]: ≥ 4 µg/mL | Susceptibility category [1]: R

ampicillin-sulbactam [SAM]
MIC of antibiotic [3]: 16 µg/mL | Susceptibility category [3]: I

CN(C)c1cc(NC(=O)CNC(C)(C)C)c(O)c2c1C[C@H]1C[C@H]3[C@H](N(C)C)C(O)=C(C(N)=O)C(=O)[C@@]3(O)C(O)=C1C2=O [TGC, tigecycline]
MIC of antibiotic [3]: 4 µg/mL | Susceptibility category [3]: I

C[C@H]1COc2c(N3CCN(C)CC3)c(F)cc3c(=O)c(C(=O)O)cn1c23 [LVX, levofloxacin]
MIC of antibiotic [1]: ≤ 1 µg/mL | Susceptibility category [1]: S
